Patent US20080280933A1, “BENZIMIDAZOLYL COMPOUNDS” (priority 2006, published 2008)
Read-outs that look alike come from different tables or passages of the source.

Biological target: T1, mGluR2 receptor (metabotropic glutamate receptor 2) (Homo sapiens, UniProt Q14416)
T1 construct: expressed in transfected cells
Experiment: mGluR2 Potentiator Screen, FLIPR, EC10-EC20 glutamate challenge
Assay type: cell-based
Conditions: read-out: EC50
Method in brief: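 HEK cells stably co-expressing mGluR2 and Gα15, kept glutamine-free overnight, were loaded with Fluo-4 plus probenecid and GPT/pyruvate. Compounds (top 10 μM) were added ≥30 min before an EC10–EC20 glutamate challenge. Peak FLIPR fluorescence ratios were curve-fitted, excluding points above maximal effect, with maxima from on-plate standards.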

T1 sequence (Q14416 19-872, species assumed): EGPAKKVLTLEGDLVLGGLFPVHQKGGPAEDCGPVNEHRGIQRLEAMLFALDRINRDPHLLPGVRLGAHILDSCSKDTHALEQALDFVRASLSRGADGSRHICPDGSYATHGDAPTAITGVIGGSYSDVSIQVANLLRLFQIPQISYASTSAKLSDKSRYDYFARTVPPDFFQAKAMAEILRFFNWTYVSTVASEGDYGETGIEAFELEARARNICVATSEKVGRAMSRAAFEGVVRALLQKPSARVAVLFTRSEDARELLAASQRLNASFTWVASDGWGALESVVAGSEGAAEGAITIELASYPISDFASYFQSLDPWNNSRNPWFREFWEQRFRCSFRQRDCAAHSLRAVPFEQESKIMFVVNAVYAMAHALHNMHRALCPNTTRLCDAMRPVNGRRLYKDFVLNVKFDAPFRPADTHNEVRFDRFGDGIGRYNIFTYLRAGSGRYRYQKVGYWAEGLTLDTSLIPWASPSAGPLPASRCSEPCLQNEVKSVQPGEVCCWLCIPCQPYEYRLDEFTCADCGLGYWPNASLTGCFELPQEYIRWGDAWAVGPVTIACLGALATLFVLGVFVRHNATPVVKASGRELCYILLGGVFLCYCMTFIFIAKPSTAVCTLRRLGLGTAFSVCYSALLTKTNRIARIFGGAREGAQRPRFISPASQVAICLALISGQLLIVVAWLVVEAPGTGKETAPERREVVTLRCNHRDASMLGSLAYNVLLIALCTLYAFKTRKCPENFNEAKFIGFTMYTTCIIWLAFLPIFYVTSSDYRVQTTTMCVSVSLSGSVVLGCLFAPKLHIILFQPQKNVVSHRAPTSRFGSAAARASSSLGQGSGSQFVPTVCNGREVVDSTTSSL

| Compound | EC50 [µM] | EC50 (listed as 11) [µM] |
| --- | --- | --- |
| Cn1c(CN2CCC(c3ccc(C(=O)NC4CCCC4)cc3)CC2)nc2ccccc21 [compound 437] | 5.27 | – |
| Cn1c(CN2CCC(F)(c3ccc(F)cc3)CC2)nc2cccc(F)c21 [compound 439] | 0.46 | – |
| CC1=C(c2ccccc2)C(C)CN(Cc2nc3ccccc3n2C)C1 (stereo not drawn) [compound 440] | 2.85 | – |
| Cn1c(CN2CCC(c3ccc(C(F)(F)F)cc3)C(F)C2)nc2ccccc21 (stereo not drawn) [compound 441] | 0.157 | – |
| Cn1c(CN2CCC(c3ccc(Cl)c(F)c3)CC2)nc2cccc(F)c21 [compound 453] | 0.157 | – |
| C[C@@H]1CN(Cc2ccc(C3CCN(Cc4nc5ccccc5n4C)CC3)cc2)C[C@H](C)O1 [compound 455] | 2.59 | – |
| Cn1c(CN2CC[C@@H]3c4ccccc4OC[C@H]3C2)nc2ccccc21 [compound 470] | 1.52 | – |
| Cn1c(CN2CC[C@H]3c4ccccc4OC[C@H]3C2)nc2ccccc21 [compound 471] | 2.07 | – |
| (2-((4-(2-Fluorophenyl)piperidin-1-yl)methyl)-1-methyl-1H-benzo[d]imidazol-5-yl)methanol [Entry 297] | 0.914 | – |
| Methyl 2-((4-(2-methoxyphenyl)piperidin-1-yl)methyl)-1-methyl-1H-benzo[d]imidazole-5-carboxylate [Entry 296] | 0.414 | 3.64 |

These reach a lower EC50. Values come first.

| EC50 [µM] | Compound | EC50 (listed as 11) [µM] |
| --- | --- | --- |
| 0.081 | COc1cccc(F)c1C1CCN(Cc2nc3ccccc3n2C)CC1 [compound 438] | – |
| 0.0807 | CCOc1ccc(C2CCN(Cc3nc4ccccc4n3C)CC2)cc1 [compound 442] | – |
| 0.057 | Cn1c(CN2CCC(c3ccc(F)c(Cl)c3)CC2)nc2ccccc21 [compound 443] | – |
| 0.131 | Cn1c(CN2CCC(c3ccc(F)c(Cl)c3)CC2)nc2cccc(F)c21 [compound 444] | – |
| 0.137 | Cn1c(CN2CCC(c3ccc(C(F)(F)F)cc3)C(F)C2)nc2cccc(F)c21 (stereo not drawn) [compound 445] | – |
| 0.0429 | Cn1c(CN2CCC(c3ccc(Cl)c(C(F)(F)F)c3)CC2)nc2ccccc21 [compound 446] | – |
| 0.0456 | Cn1c(CN2CCC(c3ccc(F)c(Cl)c3)CC2)nc2cc(F)ccc21 [compound 447] | – |
| 0.079 | Cn1c(CN2CCC(c3ccc(Cl)c(F)c3)CC2)nc2ccccc21 [compound 450] | – |
| 0.00757 | Cn1c(CN2CCC(c3ccc(Cl)cc3F)CC2)nc2ccccc21 [compound 451] | – |
| 0.0202 | Cn1c(CN2CCC(c3cccc(F)c3F)CC2)nc2ccccc21 [compound 452] | – |
| 0.0882 | Cn1c(CN2CCC(c3ccc(Cl)c(F)c3)CC2)nc2cc(F)ccc21 [compound 454] | – |
| 0.0419 | Cn1c(CN2CCC(c3ccc(Cl)cc3F)CC2)nc2cc(F)ccc21 [compound 458] | – |
| 0.0767 | CC1CN(Cc2nc3ccccc3n2C)CCC1c1ccc(OC(F)(F)F)cc1F (stereo not drawn) [compound 474] | – |
